Results taken from patent US12202844B2, “MAP4K1 inhibitors” (Blueprint Medicines Corporation, priority 2021, dated 2025).
Like-named read-outs stand apart in the source and are kept apart here.

How the values were obtained:
MAP4K1 (HPK1) = target: T1, MAP4K1 (HPK1) (Homo sapiens, UniProt Q92918); test: Inhibition of MAP4K1 biochemical enzymatic activity (EZReader 2 electrophoretic mobility shift); conditions: HPK1 (Invitrogen), S6K2tide 1.5 μM, 120 min; ATP 26 μM or 1000 μM (not given)
T1 construct: purchased Invitrogen
Source text: MAP4K1 (HPK1) and relevant off-target enzymatic activity was monitored using the Perkin Elmer electrophoretic mobility shift technology platform—the EZReader 2. […] Within the linear, steady-state phase of the kinase enzymatic reaction, the mixed pool of phosphorylated (product) and non-phosphorylated (substrate) peptides was passed through the microfluidic system of the PerkinElmer EZ Reader 2, under an applied electric potential difference. The presence of the phosphate group on the product peptide provided a difference in mass and charge between that of the substrate peptide, resulting in a separation of the substrate and product pools in the sample (Perrin et al. 2010). As the product and substrate peptide mixture passes the lasers within the instrument, these pools are detected (λex=488 nm, λem=568 nm) and resolved as separate peaks. The ratio between these peaks reflects the activity of the compound at that concentration, in that well, under those conditions.
Inhibitors were dissolved in 100% DMSO at a stock concentration of 10 mM. A 100×, 10-point, 4-fold serial dilution of each inhibitor was created in 100% DMSO either manually or on a Hamilton STAR liquid handler, starting at a relevant concentration, usually 1 mM. A volume of 0.130 μL of each concentration was transferred to the relevant wells of a 384-well plate (Greiner 781 201) in duplicate using a TTPLabtech Mosquito nano-litre dispenser. Using a Multidrop Combi, the remaining constituents of the kinase reaction were added to the 130 nL of dosed compound as follows (see table below for final reaction details):
Enzyme activity assays at the ^APPKM for ATP or 1 mM ATP: In each well of a 384-well plate, 0.1-15 nM of untreated enzyme was incubated in a total of 13 μL of buffer (100 mM HEPES pH 7.5, 0.015% Brij 35, 10 mM MgCl2, 1 mM DTT) with 1.5 μM fluorescent peptid and 20-1000 μM ATP, at 25° C., for 60-180 minutes in the presence or absence of a dosed concentration series of compound (1% DMSO final concentration). The kinase reactions were stopped by the addition of 70 μl of Stop buffer (100 mM HEPES pH 7.5, 0.015% Brij 35, 35 mM EDTA and 0.2% of Coating Reagent 3 (Caliper Lifesciences)). The plates were read on a Caliper EZReader 2 as described above.

[1] = system: Primary T Cell (expanded CD3+ T cells); test: T cell enhancement of cytokines: IL2 measurement (HTRF) in stimulated expanded CD3+ T cells; type: cell-based, human; conditions: plate-bound anti-CD3 and soluble anti-CD28, 24 h, IL2 by HTRF, read-out: IL-2 Primary T Cell EC50
Description: T cells are isolated from whole blood of healthy donors by immunomagnetic negative selection following manufacture's protocol (StemCell Technologies, human T cell isolation kit). Purity of isolated cells is assessed by flow cytometry and yields 95-98% CD3^+ T cells. For expansion of T cells, 1×10^6 cells/well are plated in serum free cell expansion media (ThermoFisher) containing 30 U of recombinant human IL2 (R&D) and stimulated with 25 ul of CD3/CD28 beads (Invitrogen) in 24 well plates for 3-4 days. T cells are then expanded in 175 cm flasks and maintained at a cell density of 1 to 2.5×10^6 cells/ml days by addition of ⅔ of fresh media every 2-3 days. After 10-14 days, cells are frozen in BamBanker freezing media (Thermo) and stored in liquid nitrogen.
For IL2 measurement, expanded CD3^+ T cells are dispensed at 100K cells/well (cultured in X-VIVO 10 Serum-free media) and are stimulated with plate-bound anti-CD3 and soluble anti-CD28 in the presence of vehicle or compound of the disclosure at various concentrations for 24 h. As outlined in the manufacturer's protocol (Cisbio), 16 μL of conditioned media is transferred to a white 384-well low volume plate. Following a 24 h incubation with the anti-IL2 antibodies, the homogenous time resolved fluorescence (HTRF) is measured.

T1 sequence (Q92918 whole entry): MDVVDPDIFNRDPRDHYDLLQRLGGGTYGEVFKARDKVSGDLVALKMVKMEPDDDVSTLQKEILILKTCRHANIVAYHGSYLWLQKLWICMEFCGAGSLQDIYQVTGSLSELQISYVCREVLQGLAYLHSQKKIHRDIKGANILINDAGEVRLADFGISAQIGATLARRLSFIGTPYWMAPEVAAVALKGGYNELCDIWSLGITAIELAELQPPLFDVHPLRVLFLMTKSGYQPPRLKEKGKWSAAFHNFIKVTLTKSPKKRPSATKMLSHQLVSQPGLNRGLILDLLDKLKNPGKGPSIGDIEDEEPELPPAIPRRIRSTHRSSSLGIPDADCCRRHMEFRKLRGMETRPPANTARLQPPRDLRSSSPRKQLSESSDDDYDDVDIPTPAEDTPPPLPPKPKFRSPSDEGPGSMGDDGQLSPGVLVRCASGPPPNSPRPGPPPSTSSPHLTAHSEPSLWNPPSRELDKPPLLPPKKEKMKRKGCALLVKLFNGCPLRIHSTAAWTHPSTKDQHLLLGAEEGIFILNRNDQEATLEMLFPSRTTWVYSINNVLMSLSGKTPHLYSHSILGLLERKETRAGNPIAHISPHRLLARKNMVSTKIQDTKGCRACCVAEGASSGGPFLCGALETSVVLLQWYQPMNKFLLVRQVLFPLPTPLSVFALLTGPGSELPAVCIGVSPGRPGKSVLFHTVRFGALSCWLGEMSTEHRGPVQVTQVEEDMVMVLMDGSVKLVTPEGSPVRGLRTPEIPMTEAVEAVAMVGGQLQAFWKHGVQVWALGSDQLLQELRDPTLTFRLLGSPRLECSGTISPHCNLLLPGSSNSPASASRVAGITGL

Compound	IC50 (MAP4K1 (HPK1)) [nM]	EC50 ([1]; Homo sapiens, T-cell, 24 h) [nM]	EC50 [1] [nM]
C[C@@H]1COC(=O)c2ccc(Nc3cc4c(C(C)(C)N)cnc(O[C@H]5C[C@@H](S(C)(=O)=O)C5)c4cn3)nc21 (single isomer, unassigned) [Compound 6]	0.18	7	
CC[C@@](C)(N)c1cnc(O[C@H](C)CCS(C)(=O)=O)c2cnc(Nc3ccc4c(n3)[C@H](C)COC4=O)cc12 (single isomer, unassigned) [Compound 16]	0.31	44	
C[C@@H]1OC(=O)c2ccc(Nc3cc4c(C(C)(C)N)cnc(O[C@@H](C)CCS(C)(=O)=O)c4cn3)nc2[C@H]1C (single isomer, unassigned) [Compound 18]	0.33	43	
C[C@@H]1COC(=O)c2ccc(Nc3cc4c(C(C)(C)N)cnc(O[C@H]5C[C@@H](S(=O)(=O)C6CC6)C5)c4cn3)nc21 (single isomer, unassigned) [Compound 26]	0.26	17	
C[C@H](CCS(C)(=O)=O)Oc1ncc(C(C)(C)N)c2cc(Nc3ccc4c(n3)C3(CC3)[C@@H](C)OC4=O)ncc12 (single isomer, unassigned) [Compound 29]	0.29	24	
CC[C@@](C)(N)c1cnc(O[C@H](C)C[C@@H](C)S(C)(=O)=O)c2cnc(Nc3ccc4c(n3)[C@H](C)COC4=O)cc12 (single isomer, unassigned) [Compound 47]	0.38	53	
CC[C@@](C)(N)c1cnc(O[C@H](C)C[C@@H](C)S(C)(=O)=O)c2cnc(Nc3ccc4c(n3)[C@H](C)COC4=O)cc12 (single isomer, unassigned) [Compound 48]	0.59		55
C[C@H](CCS(C)(=O)=O)Oc1ncc(C(C)(C)N)c2cc(Nc3ccc4c(n3)[C@@H](C)C(C)(C)OC4=O)ncc12 (single isomer, unassigned) [Compound 55]	0.36	34	
C[C@@H]1c2nc(Nc3cc4c(C(N)C5CC5)cnc(O[C@H]5C[C@@H](S(C)(=O)=O)C5)c4cn3)ccc2C(=O)OC1(C)C (single isomer, unassigned) [Compound 62, (R)-2-((5-((S or R)-Amino(cyclopropyl)methyl)-8-(cis-3-(methylsulfonyl)cyclobutoxy)-2,7-naphthyridin-3-yl)amino)-7,7,8-trimethyl-7,8-dihydro-5H-pyrano[4,3-b]pyridin-5-one]	0.33	76	
C[C@H](C[C@@H](C)S(C)(=O)=O)Oc1ncc(C(C)(C)N)c2cc(Nc3ccc4c(n3)C3(CC3)[C@@H](C)OC4=O)ncc12 (single isomer, unassigned) [Compound 65]	0.2	11	
CC[C@@](C)(N)c1cnc(O[C@H](C)CCS(C)(=O)=O)c2cnc(Nc3ccc4c(n3)C3(CC3)[C@@H](C)OC4=O)cc12 (single isomer, unassigned) [Compound 66]	0.24	21	
C[C@H]1[C@H](Oc2ncc(C(C)(C)N)c3cc(Nc4ccc5c(n4)[C@@H](C)C(C)(C)OC5=O)ncc23)C[C@@H]1S(C)(=O)=O (single isomer, unassigned) [Compound 69]	0.1	15	
CC[C@@H](N)c1cnc(O[C@H]2C[C@@H](S(=O)(=O)CC)C2)c2cnc(Nc3ccc4c(n3)[C@@H](C)C(C)(C)OC4=O)cc12 (single isomer, unassigned) [Compound 74]	0.33	51	
CC[C@@](C)(N)c1cnc(O[C@H](C)CCS(C)(=O)=O)c2cnc(Nc3ccc4c(n3)C(C)(C)COC4=O)cc12 [Compound 50]	0.56		
COC[C@@](C)(N)c1cnc(OCCCS(C)(=O)=O)c2cnc(Nc3ccc4c(n3)[C@@H](C)[C@H](C)OC4=O)cc12 [Compound 57]	0.53		
CC(C)(N)c1cnc(O[C@H]2C[C@@H](S(C)(=O)=O)C2)c2cnc(Nc3ccc4c(n3)C3(CC3)C(C)(C)OC4=O)cc12 [Compound 59]	0.15		
C[C@@H]1OC(=O)c2ccc(Nc3cc4c(C(C)(C)N)cnc(O[C@H]5C[C@@H](S(=O)(=O)C6CC6)C5)c4cn3)nc2[C@H]1C [Compound 61]	0.15		
CC[C@@](C)(N)c1cnc(O[C@H]2C[C@H](CS(C)(=O)=O)C2)c2cnc(Nc3ccc4c(n3)[C@@H](C)[C@H](C)OC4=O)cc12 [Compound 72]	0.1		

Compound	IC50 (MAP4K1 (HPK1)) [nM]	EC50 ([1]; Homo sapiens, T-cell, 24 h) [nM]	EC50 [1] [nM]
CC[C@@](C)(N)c1cnc(O[C@H]2C[C@@H](CS(C)(=O)=O)C2)c2cnc(Nc3ccc4c(n3)[C@@H](C)[C@H](C)OC4=O)cc12 [Compound 73]	0.24		
C[C@@H]1OC(=O)c2ccc(Nc3cc4c(C(C)(C)N)cnc(O[C@H]5C[C@H](S(=O)(=O)N(C)C)C5)c4cn3)nc2[C@H]1C [Compound 82]	0.35		
CCS(=O)(=O)[C@H](C)C[C@@H](C)Oc1ncc(C(C)(C)N)c2cc(Nc3ccc4c(n3)[C@@H](C)[C@H](C)OC4=O)ncc12 [Compound 89]	0.24		
CC[C@@](C)(N)c1cnc(O[C@H]2C[C@@H](S(C)(=O)=O)C2)c2cnc(Nc3ccc4c(n3)C3(CC3)C(C)(C)OC4=O)cc12 [Compound 100]	0.15		
C[C@H](C[C@@H](C)S(C)(=O)=O)Oc1ncc(C(C)(C)N)c2cc(Nc3ccc4c(n3)C3(CC3)C(C)(C)OC4=O)ncc12 [Compound 103]	0.55		
CC[C@@](C)(N)c1cnc(O[C@H]2C[C@H](CS(C)(=O)=O)C2)c2cnc(Nc3ccc4c(n3)[C@@H](C)C(C)(C)OC4=O)cc12 [Compound 113]	0.14		
CC[C@@](C)(N)c1cnc(O[C@H]2C[C@@H](CS(C)(=O)=O)C2)c2cnc(Nc3ccc4c(n3)[C@@H](C)C(C)(C)OC4=O)cc12 [Compound 114]	0.17		
CC(C)S(=O)(=O)[C@H]1C[C@@H](Oc2ncc(C(C)(C)N)c3cc(Nc4ccc5c(n4)[C@@H](C)C(C)(C)OC5=O)ncc23)C1 [Compound 116]	0.09		
C[C@@H]1c2nc(Nc3cc4c(C(C)(C)N)cnc(O[C@H]5C[C@H](S(=O)(=O)N(C)C)C5)c4cn3)ccc2C(=O)OC1(C)C [Compound 119]	0.22		
COC[C@@](C)(N)c1cnc(O[C@H]2C[C@H](CS(C)(=O)=O)C2)c2cnc(Nc3ccc4c(n3)[C@@H](C)[C@H](C)OC4=O)cc12 [Compound 120]	0.52		
COC[C@@](C)(N)c1cnc(O[C@H]2C[C@@H](CS(C)(=O)=O)C2)c2cnc(Nc3ccc4c(n3)[C@@H](C)[C@H](C)OC4=O)cc12 [Compound 121]	0.59		
COC[C@@](C)(N)c1cnc(O[C@H](C)C[C@@H](C)S(C)(=O)=O)c2cnc(Nc3ccc4c(n3)[C@@H](C)[C@H](C)OC4=O)cc12 [Compound 134]	0.48		
COC[C@@](C)(N)c1cnc(OCCCS(C)(=O)=O)c2cnc(Nc3ccc4c(n3)[C@@H](C)C(C)(C)OC4=O)cc12 [Compound 135]	0.45		
CC[C@@](C)(N)c1cnc(O[C@@H](C)CCS(C)(=O)=O)c2cnc(Nc3ccc4c(n3)C3(CC3)C(C)(C)OC4=O)cc12 [Compound 146]	1.41		
COC[C@@](C)(N)c1cnc(O[C@H](C)C[C@@H](C)S(C)(=O)=O)c2cnc(Nc3ccc4c(n3)C3(CC3)C(C)(C)OC4=O)cc12 [Compound 164]	1.48		
CC[C@@](C)(N)c1cnc(O[C@@H](C)CCS(C)(=O)=O)c2cnc(Nc3ccc4c(n3)C(C)(C)[C@@H](C)OC4=O)cc12 [Compound 177]	1.1		
CC[C@@](C)(N)c1cnc(O[C@H](C)CCS(C)(=O)=O)c2cnc(Nc3ccc4c(n3)C(C)(C)[C@@H](C)OC4=O)cc12 [Compound 178]	0.55		
